Laboratory results taken from patent US20080145499A1, “Method for treating fruit or vegetables with phosphorous ions and corresponding compositions” (priority 2006, published 2008).
“And” between values parts separate entries of the source, which are not always exact repeats. Identical values can stand only once. Like-named read-outs stand apart in the source and are kept apart here.

What was measured:
P. expansum = assay: Natural P. expansum infections in organic Elstar apples; format: in vivo
From the text: 2—In vivo Study of the Activity of Phosphonic Acid (Kphos) on P. expansum Infections in Apples

[1] = test system: strain of Penicillium digitatum resistant to imazalil; assay: Valencia oranges inoculated with Penicillium digitatum resistant to imazalil; format: in vivo; details: 52° C., 2 minutes
Description: Valencia oranges inoculated with a strain of Penicillium digitatum resistant to imazalil were treated at 52° C. and were in contact for 2 minutes with: • 300 ppm imazalil; • 3,000 ppm potassium phosphite • the two products mixed in proportions of 300 ppm imazalil and 3,000 ppm potassium phosphite.

Penicillium digitatum = assay: Washington oranges inoculated with Penicillium digitatum, eugenol/potassium phosphite; format: in vivo
Description: Washington oranges inoculated with Penicillium digitatum came into contact with a eugenol/potassium phosphite solution containing 1,100 ppm of eugenol and 1,600 ppm of potassium phosphite for 2 minutes at 38° C. and 48° C. The treated fruit was kept at 7° C. and then examined after 9 and 18 days. The fruit was compared with fruit treated with only eugenol in the same conditions and with inoculated fruits that had not been treated.

P. Digitatum [2] = test system: P. Digitatum
Description: 5—Efficacy of PA on Natural P. digitatum Infections in Oranges Combined with Thermotherapy
(§1) A new experiment which took place under conditions very similar to those in real life was carried out: natural infections, storage in cold conditions, simulation of storage periods (SPC).

P. expansum spores = test system: P. expansum spores
From the text: 1—In vitro Study of the Activity of Phosphonic Acid on P. expansum

P. Digitatum [3] = assay: Natural P. digitatum infections in Navel oranges, comparison with three fungicides; format: in vivo; details: Thermotherapy + phosphonic acid 2,000 ppm; SPC 3 days at ambient temperature
From the text: 4—Efficacy of PA on P. digitatum Infections in Oranges. Comparison with a Mixture of Three Fungicides. All Treatments Were Combined with Thermotherapy

P. Digitatum [4] = assay: Navel oranges damaged and inoculated with P. digitatum, PA with Bioxeda and thermotherapy; format: in vivo; details: 18 days, 48° C. 2 min
Description: 3—Efficacy of PA and Thermotherapy on P. digitatum Infections in Oranges
In this experiment, the oranges were damaged then inoculated with P. Digitatum (500,000 sp/mL) and treated 15 hours later; they were stored at 5° C.

oranges = details: PA up to 4,000 ppm, with thermotherapy
Description: as §1

[5] = 3,000 ppm potassium phosphite, tests 1-4

N#Cc1c[nH]cc1-c1cccc2c1OC(F)(F)O2 [Fluidoxonil]
% apples with symptoms (P. expansum; 200 ppm, 2001-2002, 90 days): 1.1% | % apples with symptoms (P. expansum; 200 ppm, 2001-2002, 180 days): 4.9% | % apples with symptoms (P. expansum; 200 ppm, 2002-2003, 90 days): 4.0% | % apples with symptoms (P. expansum; 200 ppm, 2002-2003, 180 days): 7.0%

C=CCOC(Cn1ccnc1)c1ccc(Cl)cc1Cl (stereo not shown) [Imazalil, imazalil, reference compound]
Average % of decayed fruit ([1]; 300 ppm imazalil): 42.5%

potassium phosphite
Average % of decayed fruit ([1]; 3,000 ppm potassium phosphite): 42.5% | % of decayed fruit [1, 5]: 50% and 60% and 30% | Number of fruit decayed [1, 5]: 5 and 6 and 3 | Number of fruit unaffected [1, 5]: 5 and 4 and 7 | percentages of decayed fruit (Penicillium digitatum; potassium phosphite, 38° C., after 9 days): 14% | percentages of decayed fruit (Penicillium digitatum; potassium phosphite, 38° C., after 18 days): 76% | percentages of decayed fruit (Penicillium digitatum; potassium phosphite, 48° C., after 9 days): 3% | percentages of decayed fruit (Penicillium digitatum; potassium phosphite, 48° C., after 18 days): 44%

O=[PH](O)O [PA, Phosphonic acid]
% oranges with symptoms 15 D 5° C. + 5 D SPC (P. Digitatum [2]; 2,000 ppm, no thermotherapy): 6.0% | efficacy (P. Digitatum [2]; 4,000 ppm combined with thermotherapy): 73.5% | % oranges with symptoms 15 D 5° C. + 5 D SPC (P. Digitatum [2]; 4,000 ppm, no thermotherapy): 5.1% | % oranges with symptoms 15 D 5° C. + 5 D SPC (P. Digitatum [2]; Thermotherapy (50° C. 3 min) + 2,000 ppm): 4.0% | % oranges with symptoms 15 D 5° C. + 5 D SPC (P. Digitatum [2]; Thermotherapy (50° C. 3 min) + 4,000 ppm): 2.7% | Germinated spores (P. expansum spores; 1,000 ppm (Kphos), 22° C., 24 hours): 27 | Germinated spores (P. expansum spores; 1,000 ppm (Kphos), 22° C., 48 hours): 34 | Germinated spores (P. expansum spores; 1,000 ppm (Kphos), 50° 2 min, 24 hours): 0 | Germinated spores (P. expansum spores; 1,000 ppm (Kphos), 50° 2 min, 48 hours): 21 | Germinated spores (P. expansum spores; 4,000 ppm (Kphos), 22° C., 24 hours): 11 | Germinated spores (P. expansum spores; 4,000 ppm (Kphos), 22° C., 48 hours): 11 | Germinated spores (P. expansum spores; 4,000 ppm (Kphos), 50° 2 min, 24 hours): 0 | Germinated spores (P. expansum spores; 4,000 ppm (Kphos), 50° 2 min, 48 hours): 0 | activity of PA (P. expansum spores; ambient temperature, even at 4,000 ppm): partial | Oranges with symptoms 12 D 5 0C = 3 D SPC (1) (P. Digitatum [3]): 0.5 | rate of decay, times lower in the presence of PA (P. Digitatum [4]; Bioxeda + PA versus Bioxeda): 2.3 times | Oranges with symptoms (P. Digitatum [4]; eugenol 1.8 g/L + PA 1,000 ppm (Kphos), stored at 5° C.): 26% | phytotoxicity (oranges): No phytotoxicity | % apples with symptoms (P. expansum; 1,000 ppm - 50° C. 2 min, 2001-2002, 90 days): 0.0% | % apples with symptoms (P. expansum; 1,000 ppm - 50° C. 2 min, 2001-2002, 180 days): 4.7% | % apples with symptoms (P. expansum; 1,000 ppm - 50° C. 2 min, 2002-2003, 90 days): 0.0% | % apples with symptoms (P. expansum; 1,000 ppm - 50° C. 2 min, 2002-2003, 180 days): 6.3% | % apples with symptoms (P. expansum; 1,000 ppm, 2001-2002, 90 days after treatment, 2° C.): 3.1% | % apples with symptoms (P. expansum; 1,000 ppm, 2001-2002, 180 days after treatment, 2° C.): 13.1% | % apples with symptoms (P. expansum; 1,000 ppm, 2002-2003, 90 days after treatment, 2° C.): 4.9% | % apples with symptoms (P. expansum; 1,000 ppm, 2002-2003, 180 days after treatment, 2° C.): 11.1% | activity in vivo (P. expansum; PA at ambient temperature on P. expansum in apples): ~0

Cc1cc(C)nc(Nc2ccccc2)n1 [Pyrimethanil]
% apples with symptoms (P. expansum; 250 ppm, 2001-2002, 90 days): 4.1% | % apples with symptoms (P. expansum; 250 ppm, 2001-2002, 180 days): 16.2% | % apples with symptoms (P. expansum; 250 ppm, 2002-2003, 90 days): 4.0% | % apples with symptoms (P. expansum; 250 ppm, 2002-2003, 180 days): 19.0% | % apples with symptoms (P. expansum; 500 ppm, 2001-2002, 90 days): 3.2% | % apples with symptoms (P. expansum; 500 ppm, 2001-2002, 180 days): 21.3% | % apples with symptoms (P. expansum; 500 ppm, 2002-2003, 90 days): 0.0% | % apples with symptoms (P. expansum; 500 ppm, 2002-2003, 180 days): 14.0%

C=CCc1ccc(O)c(OC)c1 [eugenol, reference compound]
percentages of decayed fruit (Penicillium digitatum; eugenol 1,100 ppm, 2 minutes at 38° C., kept at 7° C., after 9 days): 12% | percentages of decayed fruit (Penicillium digitatum; eugenol 1,100 ppm, 2 minutes at 38° C., kept at 7° C., after 18 days): 73% | percentages of decayed fruit (Penicillium digitatum; eugenol 1,100 ppm, 2 minutes at 48° C., kept at 7° C., after 9 days): 4% | percentages of decayed fruit (Penicillium digitatum; eugenol 1,100 ppm, 2 minutes at 48° C., kept at 7° C., after 18 days): 60%
